Measurements reported in patent US10508120B2, “TYK2 inhibitors and uses thereof” (Nimbus Lakshmi, Inc., priority 2017, dated 2019).

How the values were obtained:
[1] = biological target: JAK2 kinase domain (JH1) (Homo sapiens (Human), UniProt O60674); assay: JAK2 Radioactive Kinase Assay; format: biochemical; settings: 10 μM compound, 10 μM ATP; for inhibition at 10 µM: read-out: JAK2 JH1% Inhibition @ 10 μM
Outline: (§1)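 Compounds were tested at a single concentration of 10 μM in a radiometric kinase format against each isolated kinase domain. Activity is reported as percent inhibition at that concentration.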

[2] = biological target: Tyk2 kinase domain (DH1) (Homo sapiens (Human), UniProt P29597); assay: Tyk2 Radioactive Kinase Assay; format: biochemical; settings: 10 μM compound, 10 μM ATP; for inhibition at 10 µM: read-out: Tyk2 JH1% Inhibition @ 10 μM
Outline: as §1

[3] = biological target: JAK2/JAK2 homdimeric complex (Homo sapiens (Human), UniProt O60674); assay: GM-CSF Induced pSTAT5 in Human PBMC; format: cell-based; settings: GM-CSF 5 ng/mL for 20 minutes, pSTAT5 by MSD, read-out: PBMC_GMCSF_pSTAT5 IC50
[4] = biological target: human TYK2 (JH2domain-pseudokinase) (Homo sapiens (Human), UniProt P29597); assay: TYK2 JH2 Domain Binding Assay (KINOMEscan)
Outline: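 Competition binding of a DNA-tagged fusion of human TYK2 JH2 pseudokinase (G556–D888) with NFkB DNA-binding domain, from HEK293 extracts (<0.1 nM final), against immobilised ligand beads; 1 h shaking at room temperature, 0.9% DMSO. Bound kinase quantified by qPCR.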

Sequence of Tyk2 kinase domain (DH1) (P29597 897-1176): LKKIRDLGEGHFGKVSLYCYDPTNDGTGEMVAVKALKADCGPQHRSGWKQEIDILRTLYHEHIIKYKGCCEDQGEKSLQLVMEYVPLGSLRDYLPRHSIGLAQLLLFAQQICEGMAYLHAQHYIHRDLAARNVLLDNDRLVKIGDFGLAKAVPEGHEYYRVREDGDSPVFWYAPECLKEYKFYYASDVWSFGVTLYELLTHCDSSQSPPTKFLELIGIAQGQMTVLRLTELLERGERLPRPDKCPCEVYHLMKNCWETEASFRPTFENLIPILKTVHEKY
Sequence of JAK2 kinase domain (JH1) (O60674 849-1124): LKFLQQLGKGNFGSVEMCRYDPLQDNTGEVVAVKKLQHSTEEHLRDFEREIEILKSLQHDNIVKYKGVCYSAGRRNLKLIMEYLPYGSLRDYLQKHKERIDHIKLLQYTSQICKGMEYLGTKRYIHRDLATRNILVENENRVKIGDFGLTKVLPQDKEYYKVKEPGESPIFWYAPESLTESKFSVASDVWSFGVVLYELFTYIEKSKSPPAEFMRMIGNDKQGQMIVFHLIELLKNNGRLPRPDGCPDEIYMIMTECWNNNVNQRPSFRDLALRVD
Sequence of human TYK2 (JH2domain-pseudokinase) (P29597 556-888): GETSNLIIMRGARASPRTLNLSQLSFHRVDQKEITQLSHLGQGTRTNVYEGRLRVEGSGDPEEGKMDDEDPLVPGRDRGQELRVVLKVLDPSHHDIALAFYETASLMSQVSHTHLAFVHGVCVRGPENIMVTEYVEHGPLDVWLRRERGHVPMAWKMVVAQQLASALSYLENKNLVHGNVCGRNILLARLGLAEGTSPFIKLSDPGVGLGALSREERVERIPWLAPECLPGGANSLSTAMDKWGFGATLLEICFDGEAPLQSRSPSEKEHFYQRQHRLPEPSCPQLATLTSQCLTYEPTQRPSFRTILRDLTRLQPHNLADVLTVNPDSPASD
Sequence of JAK2/JAK2 homdimeric complex (O60674 whole entry, the tested form may be a part): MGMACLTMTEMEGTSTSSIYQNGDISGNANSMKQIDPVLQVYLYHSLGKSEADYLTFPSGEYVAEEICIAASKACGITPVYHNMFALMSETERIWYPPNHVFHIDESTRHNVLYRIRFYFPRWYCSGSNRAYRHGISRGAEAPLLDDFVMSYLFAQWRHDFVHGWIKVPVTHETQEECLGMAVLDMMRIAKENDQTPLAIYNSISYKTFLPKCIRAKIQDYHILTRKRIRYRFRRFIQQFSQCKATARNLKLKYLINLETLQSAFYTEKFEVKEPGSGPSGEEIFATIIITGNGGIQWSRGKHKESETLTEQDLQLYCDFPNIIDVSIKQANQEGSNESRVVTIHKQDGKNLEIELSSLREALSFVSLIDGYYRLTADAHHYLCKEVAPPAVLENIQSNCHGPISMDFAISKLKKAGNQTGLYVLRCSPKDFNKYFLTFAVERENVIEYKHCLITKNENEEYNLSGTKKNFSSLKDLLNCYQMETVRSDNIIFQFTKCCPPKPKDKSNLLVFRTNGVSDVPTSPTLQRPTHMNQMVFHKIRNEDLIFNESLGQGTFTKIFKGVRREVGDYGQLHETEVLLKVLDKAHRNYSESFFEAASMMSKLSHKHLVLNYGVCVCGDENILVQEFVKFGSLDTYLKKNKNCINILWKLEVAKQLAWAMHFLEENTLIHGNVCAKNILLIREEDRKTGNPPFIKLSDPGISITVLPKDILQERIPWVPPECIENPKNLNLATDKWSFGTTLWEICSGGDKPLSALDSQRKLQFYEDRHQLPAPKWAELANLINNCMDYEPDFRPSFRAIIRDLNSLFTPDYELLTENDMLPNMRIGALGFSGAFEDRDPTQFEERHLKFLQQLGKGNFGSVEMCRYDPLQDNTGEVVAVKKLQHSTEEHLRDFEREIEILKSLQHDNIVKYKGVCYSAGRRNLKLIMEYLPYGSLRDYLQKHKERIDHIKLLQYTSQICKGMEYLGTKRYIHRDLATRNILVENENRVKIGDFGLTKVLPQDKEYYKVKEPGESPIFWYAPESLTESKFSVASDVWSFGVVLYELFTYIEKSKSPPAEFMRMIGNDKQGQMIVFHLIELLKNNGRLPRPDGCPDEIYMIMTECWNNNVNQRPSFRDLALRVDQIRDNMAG
Sequence of JAK2/JAK2 homdimeric complex (P32927 17-897 partner): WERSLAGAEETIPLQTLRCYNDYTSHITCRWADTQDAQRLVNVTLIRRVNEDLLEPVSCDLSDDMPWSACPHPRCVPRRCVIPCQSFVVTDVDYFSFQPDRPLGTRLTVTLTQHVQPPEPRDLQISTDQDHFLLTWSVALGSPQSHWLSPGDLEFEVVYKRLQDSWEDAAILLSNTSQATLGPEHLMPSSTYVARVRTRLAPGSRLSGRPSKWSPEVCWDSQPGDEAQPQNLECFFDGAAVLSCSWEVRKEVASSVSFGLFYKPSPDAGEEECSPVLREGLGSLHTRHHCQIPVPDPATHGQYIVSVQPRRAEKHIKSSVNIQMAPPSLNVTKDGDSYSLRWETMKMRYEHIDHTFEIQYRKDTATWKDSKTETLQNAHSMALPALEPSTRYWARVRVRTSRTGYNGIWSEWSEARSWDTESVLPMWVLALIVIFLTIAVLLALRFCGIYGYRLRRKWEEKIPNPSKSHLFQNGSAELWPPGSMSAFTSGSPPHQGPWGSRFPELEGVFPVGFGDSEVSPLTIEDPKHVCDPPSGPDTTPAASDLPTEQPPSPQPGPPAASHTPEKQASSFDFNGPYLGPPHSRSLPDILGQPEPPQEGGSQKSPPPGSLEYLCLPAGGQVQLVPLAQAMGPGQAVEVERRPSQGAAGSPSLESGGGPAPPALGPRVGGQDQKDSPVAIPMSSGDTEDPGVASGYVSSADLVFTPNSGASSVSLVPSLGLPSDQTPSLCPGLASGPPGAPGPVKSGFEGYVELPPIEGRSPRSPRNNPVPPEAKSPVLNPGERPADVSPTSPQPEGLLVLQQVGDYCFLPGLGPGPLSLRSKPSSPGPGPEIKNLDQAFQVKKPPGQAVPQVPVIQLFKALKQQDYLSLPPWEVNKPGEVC

| SMILES | inhibition at 10 µM [1] [%] | inhibition at 10 µM [2] [%] | IC50 [3] [nM] | JAK2 JH1% Inhibition @ 10 μM [1] | Tyk2 JH1% Inhibition @ 10 μM [2] | Kd [4] [nM] |
| --- | --- | --- | --- | --- | --- | --- |
| CNc1cc(Nc2cccn(-c3ccccn3)c2=O)nc2c(C(=O)N[C@H]3CC[C@@H]3O)cnn12 [I-971] | < 50 | < 50 | > 50000 | – | – | – |
| CNc1cc(Nc2cccn(-c3nc(C)co3)c2=O)nc2c(C(=O)N[C@H]3CC[C@@H]3OC)cnn12 [I-975] | – | – | > 50000 | – | – | – |
| CNc1cc(Nc2cccn(C(C)C)c2=O)nc2c(C(=O)N[C@H]3CC[C@@H]3OC)cnn12 [I-980] | – | – | > 50000 | – | – | – |
| CNc1cc(Nc2cccn(-c3cncc(F)c3)c2=O)nc2c(C(=O)N[C@H]3CC[C@@H]3OC)cnn12 [I-984] | – | – | > 50000 | A (percent inhibition at 10 μM lower than 50) | – | – |
| CNc1cc(Nc2cccn([C@H]3CCC[C@@H](OC)C3)c2=O)nc2c(C(=O)N[C@@H]3CC[C@H]3O)cnn12 [I-993] | – | – | > 50000 | A (percent inhibition at 10 μM lower than 50) | A (percent inhibition at 10 μM lower than 50) | – |
| CNc1cc(Nc2cccn(C3CCOCC3)c2=O)nc2c(C(=O)N[C@H]3CC[C@@H]3OC)cnn12 [I-1014] | – | – | > 50000 | – | – | – |
| CNc1cc(Nc2cccn([C@H]3CC[C@H](OC)CC3)c2=O)nc2c(C(=O)N[C@H]3CC[C@@H]3OC)cnn12 [I-1062] | – | – | > 50000 | – | – | – |
| CNc1cc(Nc2cccn([C@H]3[C@@H]4COC[C@@H]43)c2=O)nc2c(C(=O)N[C@H]3CC[C@@H]3OC)cnn12 [I-1088] | < 50 | < 50 | > 50000 | – | – | – |
| CNc1cc(Nc2cccn(C3CCCCC3)c2=O)nc2c(C(=O)NC[C@@H](C)CO)cnn12 [I-1119] | < 50 | < 50 | – | – | – | < 0.2 |
| CNc1cc(Nc2cccn(C3CCCCC3)c2=O)nc2c(C(=O)NC[C@H](C)CO)cnn12 [I-1120] | < 50 | < 50 | – | – | – | 0.2 to 1 |
| CNc1cc(Nc2cccn([C@@H]3C[C@H]3F)c2=O)nc2c(C(=O)NCC3(CO)CC3)cnn12 [I-1122, 5-((1-((1R,2R)-2-fluorocyclopropyl)-2-oxo-1,2-dihydropyridin-3-yl)amino)-N-((1-(hydroxymethyl)cyclopropyl)methyl)-7-(methylamino)pyrazolo[1,5-a]pyrimidine-3-carboxamide] | < 50 | < 50 | – | – | – | 0.2 to 1 |
| CNc1cc(Nc2cccn([C@H]3CCC[C@@H](OC)C3)c2=O)nc2c(C(=O)N[C@@H]3CC[C@H]3O)cnn12 [I-1123] | < 50 | < 50 | – | – | – | < 0.2 |
| CNc1cc(Nc2cccn([C@H]3CCC[C@@H](OC)C3)c2=O)nc2c(C(=O)N[C@H]3CC[C@@H]3O)cnn12 [I-1124] | < 50 | < 50 | – | – | – | < 0.2 |
| CNc1cc(Nc2cccn([C@H]3CCC[C@@H](OC)C3)c2=O)nc2c(C(=O)N[C@H]3CC[C@@H]3OC)cnn12 [I-1125] | < 50 | < 50 | – | – | – | > 10 |
| CNc1cc(Nc2cccn([C@H]3CCC[C@@H](OC)C3)c2=O)nc2c(C(=O)N[C@@H]3CC[C@H]3OC)cnn12 [I-1126] | < 50 | < 50 | – | – | – | < 0.2 |
| CNc1cc(Nc2cccn([C@@H]3CCCC[C@@H]3OC)c2=O)nc2c(C(=O)N[C@H]3CC[C@@H]3OC)cnn12 [I-1127] | – | – | – | A (percent inhibition at 10 μM lower than 50) | A (percent inhibition at 10 μM lower than 50) | > 10 |
| CNc1cc(Nc2cccn([C@@H]3CCCC[C@@H]3OC)c2=O)nc2c(C(=O)N[C@@H]3CC[C@H]3OC)cnn12 [I-1128] | < 50 | < 50 | – | – | – | 1 to 10 |
| CNc1cc(Nc2cccn([C@@H]3CCC[C@@H](O)C3)c2=O)nc2c(C(=O)N[C@H]3CC[C@@H]3OC)cnn12 [I-1129] | – | – | – | A (percent inhibition at 10 μM lower than 50) | A (percent inhibition at 10 μM lower than 50) | 1 to 10 |
| CNc1cc(Nc2cccn([C@@H]3CCC[C@@H](O)C3)c2=O)nc2c(C(=O)N[C@@H]3CC[C@H]3OC)cnn12 [I-1130] | < 50 | < 50 | – | – | – | < 0.2 |
| CNc1cc(Nc2cccn([C@H]3CC[C@H](OC)CC3)c2=O)nc2c(C(=O)N[C@@H]3CC[C@H]3OC)cnn12 [I-1378] | – | – | > 50000 | – | – | – |
| CNc1cc(Nc2cccn(-c3ncco3)c2=O)nc2c(C(=O)N[C@@H]3CC[C@H]3OC)cnn12 [I-1398] | – | – | > 50000 | – | – | – |
